Experiments:
[1] = MTT assay for cytotoxicity; assay type: cell-based, Human; details: human, HepG2.2.15 cells, half (50%) lethal concentration
Description: (§1) Human hepatoblastoma cell line HepG2.2.15 stably transfected with full-length HBV (provided by Shanghai Institute of Materia Medica, Chinese Academy of Sciences)
(§2) HepG2.2.15 cells were cultured and passaged according to conventional methods. DMEM containing 10% (v/v) bovine serum and the selective antibiotic G418 was used as a medium, the cells were cultured in an incubator at 37° C. under 5% CO2 for 8 days (the medium was exchanged on the 4th day).
(§3) The test compounds were formulated with DMSO into a 40 mM stock solution, which was then prepared into a solution at the defined highest concentration using a DMEM medium containing 10% Hyclone™ Fetal Bovine Serum, followed by diluting the same; the positive drug was lamivudine, which was also prepared into a solution at the defined concentration with the DMEM medium containing 10% Hyclone™ Fetal Bovine Serum.
HepG2.2.15 cells were seeded at 5×10^3 cells/well in a 96-well plate, and cultured for eight days in the presence of the compounds according to the above method, and then 200 μl of the supernatant was taken out, followed by addition of the MTT solution. After 4 hours of culture, a lysate was added. After 12 hours of culture, the OD570 was measured on a microplate reader. By comparing with the absorbance of the control well, the percentage of viable cells was calculated, and CC50, the concentration required for the reduction of cell viability by 50%, was calculated.

HBV = HBV DNA content in the supernatant of cell culture (real-time PCR); assay type: cell-based, hepatitis B virus (HBV); details: Hepatitis B virus, HepG2.2.15, 192 h, inhibition of HBV DNA replication, HepG2.2.15 supernatant, 8 days
Description: as §1, §2, §3
HepG2.2.15 cells were treated with compounds at different concentrations for 8 days (the medium was exchanged on the 4th day), and the supernatant was aspirated, and the HBV DNA contained in the mature virus particles in the supernatant was quantitated by using a real-time PCR method.
1) The supernatant DNA from a 96-well plate, 200 μl/well, was collected, wherein the contents in the duplicate wells were collected into a same EP tube, and centrifuged at 4000 rcf for 5 min, and the supernatant was collected;
2) 200 μl of the supernatant was added into a 1.5 ml EP tube, added with 20 μl of proteinase K and 200 μl of Buffer AL (Qiagen, DNeasy® Blood & Tissue Kit), vortexed to be mixed thoroughly, and incubated at 56° C. for 10 min;
3) 200 μl of ethanol was added and vortexed to be mixed thoroughly;
4) all the liquid obtained from step 3) was added into a DNeasy Mini spin column (Qiagen, DNeasy® Blood & Tissue Kit) placed in a 2 ml waste liquid collection tube, and centrifuged at 6000 rcf for 1 min, and the supernatant was discarded;
5) the DNeasy Mini spin column was placed in a new 2 ml waste liquid collection tube, added with 500 μl of Buffer AW1 (Qiagen, DNeasy® Blood & Tissue Kit), and centrifuged at 6000 rcf for 1 min, and the supernatant was discarded;
6) the DNeasy Mini spin column was placed in a new 2 ml waste liquid collection tube, added with 500 μl of Buffer AW2, (Qiagen, DNeasy® Blood & Tissue Kit), and centrifuged at 20000 rcf for 3 min, and the supernatant was discarded;
7) the DNeasy Mini spin column was placed in anew 1.5 ml EP tube, 50 μl of Buffer AE (Qiagen, DNeasy® Blood & Tissue Kit) was pipetted and directly applied onto the membrane of the DNeasy Mini spin column, which was then left at room temperature for 5 min, and centrifuged at 6000 rcf for 1 min to elute the DNA from the membrane, the DNeasy Mini spin column was discarded, and the DNA sample was collected and stored at −20° C.
1) Standard curve: 1e^7-1e^4 IU/ml, the sample amount was 1 μl, a blank well was set so as to check whether the reaction system is polluted or not;
2) 1 μl of a DNA sample was added in sequence;
3) Addition of enzyme and reaction buffer: two tubes of the reaction solution were first added into the enzyme, mixed well and centrifuged slightly, placed on ice, added with the sample, followed by addition of 19 μl of the enzyme reaction solution, wherein, during the addition, the DNA sample should be sure of not being touched to cause contamination;
4) the sample was sealed with a sealing film and centrifuged;
Stage 2: 10 cycles • Step 1: 93° C., 45 s • Step 2: 55° C., 1 min Stage 3: 45 cycles • Step 1: 93° C., 30 s • Step 2: 55° C., 45 s
Detection: data were collected after completing the step 2 (55° C., 45 s) of the stage 3.
The experimental data were processed by using the Origin software and IC50 was calculated.

Structure (SMILES)	CC50 at 8 days [1]	IC50 (HBV)
CCNCCNc1nc(F)c(-c2nn(Cc3ccc(C#N)cc3)c(=O)c3ccccc23)cc1Cl [IV-48]	7380 nM	516 nM
COCCOCCOCCNc1ccc(-c2nn(Cc3ccc(C#N)cc3)c(=O)c3ccccc23)c(F)n1 [IV-49]	93600 nM	166 nM
COCCOCCOCCNc1nc(F)c(-c2nn(Cc3ccc(C#N)cc3)c(=O)c3ccccc23)cc1Cl [IV-50]	> 100000 nM	9.65 nM
CC(C)(C)OC(=O)CCCNc1nc(F)c(-c2nn(Cc3ccc(C#N)cc3)c(=O)c3ccccc23)cc1Cl [IV-51]	89900 nM	92 nM
N#Cc1ccc(Cn2nc(-c3cc(Cl)c(NCCCC(=O)O)nc3F)c3ccccc3c2=O)cc1 [IV-52]	> 100000 nM	84.5 nM
CCNCCCNc1ccc(-c2nn(Cc3ccc(C#N)cc3)c(=O)c3ccccc23)c(F)n1 [IV-53]	18100 nM	1070 nM
CCNCCCNc1nc(F)c(-c2nn(Cc3ccc(C#N)cc3)c(=O)c3ccccc23)cc1Cl [IV-54]	8550 nM	470 nM
CCNCCCCNc1nc(F)c(-c2nn(Cc3ccc(C#N)cc3)c(=O)c3ccccc23)cc1Cl [IV-55]	2560 nM	90 nM
CCOCCOCCNc1ccc(-c2nn(Cc3ccc(C#N)cc3)c(=O)c3ccccc23)c(F)n1 [IV-56]	> 100000 nM	214 nM
CCOCCOCCNc1nc(F)c(-c2nn(Cc3ccc(C#N)cc3)c(=O)c3ccccc23)cc1Cl [IV-57]	≥ 100000 nM	87.8 nM
CC(C)(C)OC(=O)COCCNc1ccc(-c2nn(Cc3ccc(C#N)cc3)c(=O)c3ccccc23)c(F)n1 [IV-58]	> 100000 nM	5300 nM
CC(C)(C)OC(=O)COCCNc1nc(F)c(-c2nn(Cc3ccc(C#N)cc3)c(=O)c3ccccc23)cc1Cl [IV-59]	> 100000 nM	780 nM
N#Cc1ccc(Cn2nc(-c3cc(Cl)c(NCCOCC(=O)O)nc3F)c3ccccc3c2=O)cc1 [IV-60]	> 100000 nM	766 nM
CC(C)(C)OC(=O)CCNc1ccc(-c2nn(Cc3ccc(C#N)cc3)c(=O)c3ccccc23)c(F)n1 [IV-61]	195000 nM	465 nM
CC(C)(C)OC(=O)CCNc1nc(F)c(-c2nn(Cc3ccc(C#N)cc3)c(=O)c3ccccc23)cc1Cl [IV-62]	> 100000 nM	444 nM
N#Cc1ccc(Cn2nc(-c3cc(Cl)c(NCCC(=O)O)nc3F)c3ccccc3c2=O)cc1 [IV-63]	> 100000 nM	262 nM
COC(=O)CCCNc1ccc(-c2nn(Cc3ccc(C#N)cc3)c(=O)c3ccccc23)c(F)n1 [IV-64]	> 100000 nM	1220 nM
COC(=O)CCCNc1nc(F)c(-c2nn(Cc3ccc(C#N)cc3)c(=O)c3ccccc23)cc1Cl [IV-65]	> 100000 nM	116 nM
N#Cc1ccc(Cn2nc(-c3ccc(NCCCO)nc3F)c3ccccc3c2=O)cc1 [IV-66]	94000 nM	180 nM

Structure (SMILES)	CC50 at 8 days [1]	IC50 (HBV)
N#Cc1ccc(Cn2nc(-c3cc(Cl)c(NCCCO)nc3F)c3ccccc3c2=O)cc1 [IV-67]	> 100000 nM	4.2 nM
N#Cc1ccc(Cn2nc(-c3ccc(NCCCCO)nc3F)c3ccccc3c2=O)cc1 [IV-68]	> 100000 nM	332 nM
N#Cc1ccc(Cn2nc(-c3cc(Cl)c(NCCCCO)nc3F)c3ccccc3c2=O)cc1 [IV-69]	25000 nM	8.1 nM
CCOC(=O)CCNc1ccc(-c2nn(Cc3ccc(C#N)cc3)c(=O)c3ccccc23)c(F)n1 [IV-70]	> 100000 nM	3320 nM
CCOC(=O)CCNc1nc(F)c(-c2nn(Cc3ccc(C#N)cc3)c(=O)c3ccccc23)cc1Cl [IV-71]	> 100000 nM	2780 nM
COC(=O)CCNc1ccc(-c2nn(Cc3ccc(C#N)cc3)c(=O)c3ccccc23)c(F)n1 [IV-72]	> 100000 nM	1720 nM
COC(=O)CCNc1nc(F)c(-c2nn(Cc3ccc(C#N)cc3)c(=O)c3ccccc23)cc1Cl [IV-73]	> 100000 nM	215 nM
CS(=O)(=O)CCNc1ccc(-c2nn(Cc3ccc(C#N)cc3)c(=O)c3ccccc23)c(F)n1 [IV-74]	> 100000 nM	130 nM
CS(=O)(=O)CCNc1nc(F)c(-c2nn(Cc3ccc(C#N)cc3)c(=O)c3ccccc23)cc1Cl [IV-75]	> 100000 nM	36.6 nM
N#Cc1ccc(Cn2nc(-c3ccc(NCCO)nc3F)c3ccccc3c2=O)cc1 [IV-76]	> 100000 nM	202 nM
N#Cc1ccc(Cn2nc(-c3cc(Cl)c(NCCO)nc3F)c3ccccc3c2=O)cc1 [IV-77]	32100 nM	27.7 nM
CC1(C)OCC(CNc2ccc(-c3nn(Cc4ccc(C#N)cc4)c(=O)c4ccccc34)c(F)n2)O1 (centres unmarked) [IV-78]	> 100000 nM	341 nM
CC1(C)OCC(CNc2nc(F)c(-c3nn(Cc4ccc(C#N)cc4)c(=O)c4ccccc34)cc2Cl)O1 (centres unmarked) [IV-79]	> 100000 nM	347 nM
N#Cc1ccc(Cn2nc(-c3cc(Cl)c(NCC(O)CO)nc3F)c3ccccc3c2=O)cc1 (centres unmarked) [IV-80]	> 100000 nM	< 98 nM
CC(O)CNc1ccc(-c2nn(Cc3ccc(C#N)cc3)c(=O)c3ccccc23)c(F)n1 (centres unmarked) [IV-81]	65200 nM	334 nM
CC(O)CNc1nc(F)c(-c2nn(Cc3ccc(C#N)cc3)c(=O)c3ccccc23)cc1Cl (centres unmarked) [IV-82]	71900 nM	209 nM
N#Cc1ccc(Cn2nc(-c3ccc(NCCC(F)(F)F)nc3F)c3ccccc3c2=O)cc1 [IV-83]	> 100000 nM	413 nM
N#Cc1ccc(Cn2nc(-c3cc(Cl)c(NCCC(F)(F)F)nc3F)c3ccccc3c2=O)cc1 [IV-84]	63500 nM	< 98 nM

— patent publication US11040952B2, “Phthalazinone compound, method for preparation thereof, pharmaceutical composition thereof, and use thereof” (SHANGHAI INSTITUTE OF MATERIA MEDICA, CHINESE ACADEMY OF …, priority 2017, dated 2021)
